The target in test [1] is T1, CB2 receptor (Homo sapiens, UniProt P34972).
T1 construct: expressed in transfected cells
The test can be described thus: Modified functional cell-based assay (Beta-Glo luminescence), CB2 receptor. The following applies: CB2 EC50 (Receptor Functional Activity), one sample per compound, Cpd 237 n=3. Here is the method:
(§1) Additional functional activity studies were performed with minor modifications. Beta galactosidase activity was quantified using the luminescent Beta-Glo Assay System (Promega Corp. Madison, Wis.) and an Orion Microplate Luminometer (Berthold Detection Systems, Oak Ridge, Tenn.). The EC50 values were calculated using GraphPad Prism and a four parameter logistic equation.
(§2) The functional activity EC50 value for compounds tested (shown in Table 8) were obtained from studies in which varying compound concentrations were used. With the exception of Cpd 237 (n=3), one sample for each compound was tested.

In test [2] the target is T2, CB1 receptor (Homo sapiens, UniProt P21554).
T2 construct: expressed in transfected cells
T2 sequence (P21554 whole entry): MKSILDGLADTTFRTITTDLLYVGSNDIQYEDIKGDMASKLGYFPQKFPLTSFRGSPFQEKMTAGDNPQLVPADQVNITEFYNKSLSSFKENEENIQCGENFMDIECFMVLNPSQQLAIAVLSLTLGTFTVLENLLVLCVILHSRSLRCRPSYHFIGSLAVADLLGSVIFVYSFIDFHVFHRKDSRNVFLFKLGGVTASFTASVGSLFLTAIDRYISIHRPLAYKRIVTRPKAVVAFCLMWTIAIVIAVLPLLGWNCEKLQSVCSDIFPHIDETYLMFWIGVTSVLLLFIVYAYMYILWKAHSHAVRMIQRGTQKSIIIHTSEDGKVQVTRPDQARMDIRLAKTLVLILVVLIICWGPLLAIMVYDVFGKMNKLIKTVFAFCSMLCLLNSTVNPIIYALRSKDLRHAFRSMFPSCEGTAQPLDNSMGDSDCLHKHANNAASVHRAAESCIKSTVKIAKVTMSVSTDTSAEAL
Put plainly: Binding assay for CB1 agonists or inverse agonists (SK-N-MC membranes, [3H]-CP-55,940). Summed up:
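Radioligand displacement: [3H]-CP-55,940 at […], 90 min at 30° C, pH 7.5 Tris buffer with 0.5 mg/mL fatty-acid-free BSA, using semi-purified membranes of human-CB1-transfected SK-N-MC cells. Bound counts collected on GF/C filters, 10 uM WIN 55,212 for non-specific; IC50 from percent inhibition over several concentrations.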

Test [3] concerns the target T2, CB1 receptor. Put plainly: Modified functional cell-based assay (Beta-Glo luminescence), CB1 receptor. The following applies: CB1 EC50 (Receptor Functional Activity), one sample per compound, Cpd 237 n=3. As to the method:
as §1, §2

The target of test [4] is T1, CB2 receptor. Put plainly: Binding assay for CB2 agonists or inverse agonists (SK-N-MC membranes, [3H]-CP-55,940). The method, boiled down: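 IC50 came from percent-inhibition data over several compound concentrations, fitted by linear regression. Binding used semi-purified membranes of human CB2-transfected SK-N-MC cells, 90 min at 30 °C, pH 7.5 Tris-HCl with MgCl2, EDTA and BSA, then filtration and scintillation counting.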

Test [5] addresses T2, CB1 receptor. Put plainly: Modified binding assay, CB1 receptor in CHO cells, [3H]CP 55940. The following applies: [3H]CP 55940 0.5 nM, 120 minutes at 37° C. As to the method:
(§3) Additional receptor binding studies were performed with minor modifications as detailed below.
(§4) The human CB1 and CB2 receptors were stably expressed in CHO cells as described in Rinaldi-Carmona, M., Calandra, B., Shire, D., Bouaboula, M., Oustric, D., Barth, F., Casellas, P., Ferrara, P. and Le Fur, G. (1996) J. PharmacoL Exp. Ther., 278: 871-878 and Munro, S., Thomas, K. L. and Abu-Shaar, M. (1993) Nature, 365: 61-65, respectively. [^3H]CP 55940 (0.5 nM) was used as the radioligand for the CB1 receptor binding assay. [^3H]WIN 55212 (0.8 nM) was used as the radioligand for the CB2 receptor binding assay. Incubation was carried out for 120 minutes at 37° C.
(§5) The specific ligand binding to the receptors is defined as the difference between the total binding and the nonspecific binding determined in the presence of an excess of unlabelled ligand. The results are expressed as a percent of control specific binding ((measured specific binding/control specific binding)×100) obtained in the presence of the test compounds.
(§6) The IC50 values (concentration causing a half-maximal inhibition of control specific binding) were determined by non-linear regression analysis of the competition curves generated with mean replicate values using Hill equation curve fitting (where Y=specific binding, D=minimum specific binding, A=maximum specific binding, C=compound concentration, C50=IC50 and nH=slope factor): (Y=D+[(A−D)/(1+(C/C50)^nH)] CB1 and CB2 Receptor Binding Results
(§7) For compounds tested, an IC50 binding value was obtained from percent inhibition studies in which various test concentrations were used.

The target in test [6] is T1, CB2 receptor. The test can be described thus: Modified binding assay, CB2 receptor in CHO cells, [3H]WIN 55212. The following applies: [3H]WIN 55212 0.8 nM, 120 minutes at 37° C. As to the method:
as §3, §4, §5, §6, §7

The subject of test [7] is Male CD-1 mice. The test can be described thus: Postoperative inflammatory ileus, upper gastrointestinal transit (FITC-dextran, Geometric Center). The format is in vivo. The settings on record: Surgical Manipulation, dose 1 mg/kg, 24 hr post-laparotomy, mean ± SE; scale 1 to 15. As to the method: (§8) Male CD-1 mice were anesthetized by inhaled isoflurane and prepared for surgery. The abdomen was shaved of hair and treated with antiseptic solution. The animal was then covered with a surgical drape, leaving the abdomen exposed. A mid-line laparotomy was performed, and the entire small intestine was exteriorized onto the sterile drape. Using two moistened, sterile, cotton-tipped applicators, the small intestine was then gently compressed along its length from the ligament of Treitz to the ileo-cecal junction. The small intestine was then returned to the abdominal cavity and the incision closed by two layers of sutures.
(§9) Age-matched mice were randomly assigned to groups (6 animals per group) and injected intraperitoneally (i.p.) with “vehicle” (a mixture of 5% ethanol/5% Tween80/90% of 5% dextran in water w/v) containing various doses of a test compound 1 hr prior to laparotomy. The second group was injected intraperitoneally with vehicle. The third group was administered intragastrically (1 mg/kg) a mixture (1 mg/mL) of dexamethasone in 20% hydroxypropyl methyl dextran in water, once per day for two days prior to surgery and 5 hrs post-laparotomy. The fourth group received no intervention and served as naïve controls.
Upper gastrointestinal transit was measured 24 hr post-laparotomy. Mice were fed a test meal consisting of 150 μL of FITC-dextran solution (5 mg/mL of 70,000 molecular weight dextran conjugated to fluorescein-isothiocyanate in 0.5% hydroxypropyl methylcellulose/deionized water) administered intragastrically by an 18 gauge feeding tube. Following oral administration of the FITC-dextran test meal, animals were returned to their home cages. Following a 45 min test period, mice were euthanized by isoflurane overdose and exsanguination. The entire gastrointestinal tract from the lower esophageal sphincter to the terminal colon was removed. The bowel segments were opened along the mesenteric border. The tissue and luminal contents of the stomach, 10 equal segments of small intestine, the cecum, and 3 equal segments of colon were placed in individual Eppendorf tubes containing 1 ml of PBS. The tissue was vigorously mixed on a tabletop vortex, and solid materials were pelletized by centrifugation. Aliquots of the cleared supernatant were read in duplicate on a 96-well fluorescence plate reader to quantify the magnitude of the fluorescent signal in each segment of bowel.
These values were used to calculate the Geometric Center (REF), which is defined as the weighted average distribution of the fluorescent signal along the gastrointestinal tract: GC=Σ(% of total fluorescent signal per segment×segment number)/100,
Higher GC values represent faster rates of transit on scale of 1 to 15.
Surgical manipulation of the small bowel leads to a significant delay in gastrointestinal transit, going from a Geometric Center of 8.4 in normal mice to 3.3 in vehicle treated animals.

The subject of test [8] is Male CD-1 mice. The test can be described thus: Postoperative inflammatory ileus, microscopic myeloperoxidase histological examination. Format: in vivo. The settings on record: Surgical Manipulation, dose 1 mg/kg, 24 hr post-laparotomy, mean ± SE. Here is the method:
as §8, §9
Microscopic histological examination was performed on harvested tissues 24 hr post-laparotomy. […] Hanker-Yates reagent (Polysciences Inc.) forms an insoluble, blue-black polymer in the presence of hydrogen peroxide and peroxidase enzyme activity. Segments of mid small bowel were collected from the centrifuge tubes described in the previous section. Whole mounts of the muscle layer were prepared by opening the tube of bowel along the mesenteric border and pinning the tissue flat in a Sylgard™ lined Petri dish with the mucosal surface facing upward. The tissue was stretched to 1.5 times its length and 2.5 times its width, and the mucosa removed by fine dissection. The remaining muscularis whole mounts were then fixed with 100% ethanol for 45 min, washed 3 times with PBS, and incubated for 20 min in PBS containing 0.1% hydrogen peroxide and 1 mg/ml Hanker-Yates reagent (Polysciences, Inc). The reagent is polymerized in the presence of hydrogen peroxide and peroxidase activity to form a blue-black deposit. Following a second wash with PBS, the whole mounts were mounted on glass slides, cover-slipped, and viewed on an optical microscope. Myeloperoxidase containing leukocytes were counted in 6 to 8 adjacent 200× optical fields, and the mean cell counts were calculated and recorded.
The presence of myeloperoxidase (MPO) positive immune cells in the intestinal muscularis is rare in normal animals.

[9] abbreviates: test concentration 0.2 μM (footnote 2), 0.2 µM.

SMILES strings stand for the structures. pEC50, pIC50: −log10 of the molar value.

T1 sequence (P34972 whole entry): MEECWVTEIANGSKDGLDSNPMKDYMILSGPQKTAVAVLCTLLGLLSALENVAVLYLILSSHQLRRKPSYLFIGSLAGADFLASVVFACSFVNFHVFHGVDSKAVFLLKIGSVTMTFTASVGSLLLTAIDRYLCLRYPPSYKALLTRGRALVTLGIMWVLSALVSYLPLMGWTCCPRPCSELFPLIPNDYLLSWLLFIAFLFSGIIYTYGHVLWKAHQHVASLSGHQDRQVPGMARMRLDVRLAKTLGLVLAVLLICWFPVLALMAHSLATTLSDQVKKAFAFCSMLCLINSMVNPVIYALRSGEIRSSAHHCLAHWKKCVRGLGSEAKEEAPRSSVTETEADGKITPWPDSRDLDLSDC

One may read the pEC50 as the negative decadic logarithm of the EC50, by convention in mol/L. For the compound `C[C@H](NS(=O)(=O)/C=C/c1n[nH]c2c1CCCCC2Cc1cccc(F)c1)c1ccccc1` (single isomer, unassigned) [Cpd 233, (2E)-2-[(8S*)-8-(3-fluoro-benzyl)-1,4,5,6,7,8-hexahydro-cycloheptapyrazol-3-yl]-ethenesulfonic acid [(1S)-1-phenyl-ethyl]-amide], the pEC50 in test [1] is ~5.89; in test [3] it was ~5.36. The “CB1 receptor binding percent inhibition” value in test [2] (setting [9]) was “^(2)0%”. Moreover, the “CB2 receptor binding percent inhibition” value in test [4] (setting [9]) is “^(2)20%”.

The pIC50 is the IC50 on a negative log10 scale, so that one unit is a factor of ten. Regarding `O=C(N[C@H](CO)c1ccccc1)c1n[nH]c2c1CCCCC2Cc1cccc(Cl)c1` (stereo partly drawn) [Cpd 164, 8-(3-chloro-benzyl)-1,4,5,6,7,8-hexahydro-cycloheptapyrazole-3-carboxylic acid [(1S)-2-hydroxy-1-phenyl-ethyl]-amide], the pIC50 in test [5] is 6.06; in test [6], 6.64. Further, the figures for the pEC50 in test [1] and in test [3] were 7.60 and < 6.00, respectively. Also, the inhibition at 0.2 µM in test [2] (read-out: CB1 receptor binding percent inhibition, test concentration 0.2 μM (footnote 2)) is 26%; in test [4] (read-out: CB2 receptor binding percent inhibition, test concentration 0.2 μM (footnote 2)), 94%.

For the compound `C[C@@H]1C[C@H]2[C@@H]3CCC4=CC(=O)C=C[C@]4(C)[C@@]3(F)[C@@H](O)C[C@]2(C)[C@@]1(O)C(=O)CO` [dexamethasone, reference compound], the “Geometric Center (upper gastrointestinal transit)” value in test [7] came out at 6.0 ± 0.14. The “MPO-Positive Cells (Per 200× Optical Field)” value in test [8] was 29.8 ± 3.9.

The values above are taken from patent publication US8378117B2 (priority 2005, dated 2013).
